Assay results: US7838674B2, “Tetracyclic lactame derivatives” (Novartis AG, priority 2007, dated 2010)
Where a name gives a salt, the structure may show the parent alone.

Target: T1, MAPKAPK2 enzyme (HIS-MK2, Invitrogen PV4019) (Homo sapiens, UniProt P49137)
T1 construct: His; purchased Invitrogen PV4019
Experiment: Alternative MAPKAPK2 assay (Caliper microfluidic mobility shift, HSP27-peptide)
Assay type: biochemical
Conditions: HIS-MK2 0.013 nM, ATP 10 μM, 60 min at 30° C.

T1 sequence (P49137 whole entry): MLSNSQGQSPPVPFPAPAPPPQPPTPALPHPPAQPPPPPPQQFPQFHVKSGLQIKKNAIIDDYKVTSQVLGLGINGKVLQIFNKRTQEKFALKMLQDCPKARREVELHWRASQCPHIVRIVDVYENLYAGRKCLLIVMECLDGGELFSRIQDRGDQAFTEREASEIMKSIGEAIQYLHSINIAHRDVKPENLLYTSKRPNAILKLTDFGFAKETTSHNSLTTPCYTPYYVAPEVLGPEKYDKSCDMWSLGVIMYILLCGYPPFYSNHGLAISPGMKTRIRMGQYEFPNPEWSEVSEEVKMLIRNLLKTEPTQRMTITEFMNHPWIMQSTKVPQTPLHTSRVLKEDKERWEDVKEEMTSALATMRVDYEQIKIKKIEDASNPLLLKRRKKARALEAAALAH

| Compound | IC50 |
| --- | --- |
| CN1CC2(C1)c1[nH]c3c(c1C(=O)NC21CC1)CCc1cnc(-c2ccc(C(F)(F)F)nc2)cc1-3 [Example 222, 2-[3-(1-Amino-cyclopropyl)-1-methyl-azetidin-3-yl]-8-(6-trifluoromethyl-pyridin-3-yl)-4,5-dihydro-1H-pyrrolo[2,3-f]isoquinoline-3-carboxylic acid lactam] | < 3 nM |
| CN(C)c1ccc(-c2cc3c(cn2)CCc2c4c(n(C)c2-3)CC2(CNC2)NC4=O)cn1 [Example 147, 2-(3-Amino-azetidin-3-ylmethyl)-8-(6-dimethylamino-pyridin-3-yl)-1-methyl-4,5-dihydro-1H-pyrrolo[2,3-f]isoquinoline-3-carboxylic acid lactam hydrochloride] | 89 nM |
| COc1ccc(-c2cc3c(cn2)CCc2c-3[nH]c3c2C(=O)N[C@@H]2CC[C@H]32)cc1 (racemic) [Example 50, (+)-2-(2-Amino-cyclobutyl)-8-(4-methoxy-phenyl)-4,5-dihydro-1H-pyrrolo[2,3-f]isoquinoline-3-carboxylic acid lactam] | 21 nM |
| CC(C)Oc1ccc(-c2cc3c(cn2)CCc2c4c(n(C)c2-3)C2(CNC4=O)CN(C)C2)cn1 [Example 183, 2-(3-Aminomethyl-1-methyl-azetidin-3-yl)-8-(6-isopropoxy-pyridin-3-yl)-1-methyl-4,5-dihydro-1H-pyrrolo[2,3-f]isoquinoline-3-carboxylic acid lactam] | 9 nM |
| COc1ccc(-c2ncc3c(n2)-c2c(c4c(n2C)C2(CNC2)CNC4=O)CC3)cc1 [Example 218, 2-(3-Aminomethyl-azetidin-3-yl)-8-(4-methoxy-phenyl)-1-methyl-4,5-dihydro-1H-1,7,9-triaza-cyclopenta[a]naphthalene-3-carboxylic acid lactam hydrochloride] | 30 nM |
| O=C1NC2(CC2)C2(CC2)c2[nH]c3c(c21)CCc1cnc(-c2ccc(OC4CCOCC4)nc2)cc1-3 [Example 198, 2-(1′-Amino-bicyclopropyl-1-yl)-8-[6-(tetrahydro-pyran-4-yloxy)-pyridin-3-yl]-4,5-dihydro-1H-pyrrolo[2,3-f]isoquinoline-3-carboxylic acid lactam] | 20 nM |
| Cn1c2c(c3c1-c1nc(-c4ccc(Br)cc4)ncc1CC3)C(=O)NC1(CNC1)C2 [Example 139, 2-(3-Amino-azetidin-3-ylmethyl)-8-(4-bromo-phenyl)-1-methyl-4,5-dihydro-1H-1,7,9-triaza-cyclopenta[a]naphthalene-3-carboxylic acid lactam hydrochloride] | 18 nM |
| CC(C)(O)CCc1ccc(-c2cc3c(cn2)CCc2c-3[nH]c3c2C(=O)NC2(CC2)C3)cc1 [Example 77, 2-(1-Amino-cyclopropylmethyl)-8-[4-(3-hydroxy-3-methyl-butyl)-phenyl]-4,5-dihydro-1H-pyrrolo[2,3-f]isoquinoline-3-carboxylic acid lactam] | 85 nM |
| Cn1c2c(c3c1-c1cc(-c4ccncc4)ncc1CC3)C(=O)NC1(CNC1)C2 [Example 152, 2-(3-Amino-azetidin-3-ylmethyl)-8-(pyridin-4-yl)-1-methyl-4,5-dihydro-1H-pyrrolo[2,3-f]isoquinoline-3-carboxylic acid lactam hydrochloride] | 15 nM |
| O=C1NC2(CC2)C2(CC2)c2[nH]c3c(c21)CCc1cnc(-c2ccc(N4CCNCC4)cc2)cc1-3 [Example 220, 2-(1′-Amino-bicyclopropyl-1-yl)-8-(4-piperazin-1-yl-phenyl)-4,5-dihydro-1H-pyrrolo[2,3-f]isoquinoline-3-carboxylic acid lactam hydrochloride] | 26 nM |
| O=C(NCc1ccccc1)c1cncc(-c2ncc3c(n2)-c2[nH]c4c(c2CC3)C(=O)NCC42CC2)c1 [Example 290, N-Benzyl-5-(10-spirocyclopropyl-7-oxo-6,7,8,9,10,11-hexahydro-5H-1,3,8,11-tetraaza-benzo[a]fluoren-2-yl)-nicotinamide] | 86 nM |
| COc1ccc(-c2ncc3c(n2)-c2[nH]c4c(c2CC3)C(=O)NC2(CC2)C42CN(C)C2)cc1 [Example 215, 2-[3-(1-Amino-cyclopropyl)-1-methyl-azetidin-3-yl]-8-(4-methoxy-phenyl)-4,5-dihydro-1H-1,7,9-triaza-cyclopenta[a]naphthalene-3-carboxylic acid lactam] | 18 nM |
| Cc1cncc(-c2cc3c(cn2)CCc2c-3[nH]c3c2C(=O)NC2(CCC2)C3)c1 [Example 102, 2-(1-Amino-cyclobutylmethyl)-8-(5-methyl-pyridin-3-yl)-4,5-dihydro-1H-pyrrolo[2,3-f]isoquinoline-3-carboxylic acid lactam] | 62 nM |
| COc1ccc(-c2cc3c(cn2)CCc2c-3[nH]c3c2C(=O)N[C@@H]2C[C@H]32)cc1 (racemic) [Example 52, (+)-2-(2-Amino-cyclopropyl)-8-(4-methoxy-phenyl)-4,5-dihydro-1H-1,7-diaza-cyclopenta[a]naphthalene-3-carboxylic acid lactam] | 35 nM |
| CCOc1ccc(-c2ncc3c(n2)-c2c(c4c(n2C)CC2(CNC2)NC4=O)CC3)cc1 [Example 59, 2-(3-Amino-azetidin-3-ylmethyl)-8-(4-ethoxyphenyl)-1-methyl-4,5-dihydro-1H-1,7,9-triaza-cyclopenta[a]naphthalene-3-carboxylic acid lactam hydrochloride] | 13 nM |
| CCN1CC2(C1)c1[nH]c3c(c1C(=O)NC21CC1)CCc1cnc(-c2cnc(OC)c(F)c2)cc1-3 [Example 252, 2-[3-(1-Amino-cyclopropyl)-1-ethyl-azetidin-3-yl]-8-(5-fluoro-6-methoxy-pyridin-3-yl)-4,5-dihydro-1H-pyrrolo[2,3-f]isoquinoline-3-carboxylic acid lactam] | 8 nM |
| N#Cc1ccc(-c2cc3c(cn2)CCc2c-3[nH]c3c2C(=O)NC2(CC2)C3)cc1 [Example 60, 2-(1-Amino-cyclopropylmethyl)-8-(4-cyano-phenyl)-4,5-dihydro-1H-pyrrolo[2,3-f]isoquinoline-3-carboxylic acid lactam] | 75 nM |
| O=C1NCC2(CCC2)c2[nH]c3c(c21)CCc1cnc(-c2ccc(F)nc2)cc1-3 [Example 300, 2-(6-Fluoro-pyridin-3-yl)-10-spirocyclobutyl-5,6,8,9,10,11-hexahydro-3,8,11-triaza-benzo[a]fluoren-7-one] | 15 nM |
| Cc1ccc(-c2cc3c(cn2)CCc2c-3[nH]c3c2C(=O)NC2(CC2)C3)cn1 [Example 69, 2-(1-Amino-cyclopropylmethyl)-8-(6-methyl-pyridin-3-yl)-4,5-dihydro-1H-pyrrolo[2,3-f]isoquinoline-3-carboxylic acid lactam] | 35 nM |
| CC(C)Oc1ccc(-c2cc3c(cn2)CCc2c-3[nH]c3c2C(=O)NC2(CC2)C32CN(C)C2)cn1 [Example 254, 2-[3-(1-Amino-cyclopropyl)-1-methyl-azetidin-3-yl]-8-(6-isopropoxy-pyridin-3-yl)-4,5-dihydro-1H-pyrrolo[2,3-f]isoquinoline-3-carboxylic acid lactam] | < 3 nM |
| COc1ncc(-c2cc3c(cn2)CCc2c-3[nH]c3c2C(=O)NC2(CC2)C32CC2)cc1F [Example 194, 2-(1′-Amino-bicyclopropyl-1-yl)-8-(5-fluoro-6-methoxy-pyridin-3-yl)-4,5-dihydro-1H-pyrrolo[2,3-f]isoquinoline-3-carboxylic acid lactam] | 42 nM |
| Cn1c2c(c3c1C1(CNC1)CNC3=O)CCc1cnc(-c3cccc(Cl)c3)cc1-2 [Example 189, 2-[3-Aminomethyl-azetidin-3-yl]-8-(3-chloro-phenyl)-1-methyl-4,5-dihydro-1H-pyrrolo[2,3-f]isoquinoline-3-carboxylic acid lactam hydrochloride] | 6 nM |
| CC(C)(N)CCc1ccc(-c2cc3c(cn2)CCc2c-3[nH]c3c2C(=O)NCC32CC2)cc1 [Example 118, 8-[4-(3-Amino-3-methyl-butyl)-phenyl]-2-(1-aminomethyl-cyclopropyl)-4,5-dihydro-1H-pyrrolo[2,3-f]isoquinoline-3-carboxylic acid lactam] | 16 nM |
| CC(C)(N)CCc1ccc(-c2cc3c(cn2)CCc2c-3[nH]c3c2C(=O)NC2(CC2)C3)cc1 [Example 78, 2-(1-Amino-cyclopropylmethyl)-8-[4-(3-amino-3-methyl-butyl)-phenyl]-4,5-dihydro-1H-pyrrolo[2,3-f]isoquinoline-3-carboxylic acid lactam] | 18 nM |
| CC(C)(O)C#Cc1ccc(-c2cc3c(cn2)CCc2c-3[nH]c3c2C(=O)NCC32CC2)cc1 [Example 119] | 89 nM |
| O=C1NC2(CC2)Cc2[nH]c3c(c21)CCc1cnc(-c2ccc(CO)nc2)cc1-3 [Example 240, 2-(1-Amino-cyclopropylmethyl)-8-(6-hydroxymethyl-pyridin-3-yl)-4,5-dihydro-1H-pyrrolo[2,3-f]isoquinoline-3-carboxylic acid lactam] | 11 nM |
| N#Cc1ccc(-c2cc3c(cn2)CCc2c-3[nH]c3c2C(=O)NC2(CC2)C3)cn1 [Example 63, 2-(1-Amino-cyclopropylmethyl)-8-(6-cyano-pyridin-3-yl)-4,5-dihydro-1H-pyrrolo[2,3-f]isoquinoline-3-carboxylic acid lactam] | 89 nM |
| Cn1c2c(c3c1C1(CNC1)CNC3=O)CCc1cnc(-c3ccc(F)nc3)cc1-2 [Example 162, 2-(3-Aminomethyl-azetidin-3-yl)-8-(6-fluoro-pyridin-3-yl)-1-methyl-4,5-dihydro-1H-pyrrolo[2,3-f]isoquinoline-3-carboxylic acid lactam hydrochloride] | 20 nM |
| CN1CC2(C1)c1[nH]c3c(c1C(=O)NC21CC1)CCc1cnc(-c2cccc(C(=O)NCc4ccccc4)c2)cc1-3 [Example 226, 2-[3-(1-Amino-cyclopropyl)-1-methyl-azetidin-3-yl]-8-(3-benzylcarbamoyl-phenyl)-4,5-dihydro-1H-pyrrolo[2,3-f]isoquinoline-3-carboxylic acid lactam] | < 3 nM |
| O=C1NCC2(CC2)c2[nH]c3c(c21)CCc1cnc(-c2cncc(F)c2)cc1-3 [Example 112, 2-(1-Aminomethyl-cyclopropyl)-8-(5-fluoro-pyridin-3-yl)-4,5-dihydro-1H-pyrrolo[2,3-f]isoquinoline-3-carboxylic acid lactam] | 9 nM |
